We go through 19 compounds from patent US12577226B2, “Compounds for treating Huntington's disease” (PTC THERAPEUTICS, INC., priority 2019, dated 2026).

The assay relates to Endogenous Huntingtin Protein (capture with MW1 (expanded polyglutamine) or MAB2166 antibody). Kind of assay: Endogenous Huntingtin Protein Assay (ELISA-based Meso Scale Discovery electrochemiluminescence assay). Particulars: MSD electrochemiluminescence platform. Format: cell-based. How it is done: Compounds of Formula (I), Formula (II), or Formula (III) were tested using the Meso Scale Discovery (MSD) Assay provided in International Application No. PCT/US2016/066042, filed on Dec. 11, 2016 and claiming priority to U.S. Provisional Application U.S. 62/265,652 filed on Dec. 10, 2015, the entire contents of which are incorporated herein by reference.
The Endogenous Huntingtin Protein assay used in Example 1 was developed using the ELISA-based MSD electrochemiluminescence assay platform.
Meso Scale Discovery (MSD) 96-well or 384-well plates were coated overnight at 4° C. with MW1 (expanded polyglutamine) or MAB2166 monoclonal antibody (for capture) at a concentration of 1 μg/mL in PBS (30 μL per well). Plates were then washed three times with 300 μL wash buffer (0.05% Tween-20 in PBS) and blocked (100 μL blocking buffer; 5% BSA in PBS) for 4-5 hours at room temperature with rotational shaking and then washed three times with wash buffer.
Samples (25 μL) were transferred to the antibody-coated MSD plate and incubated overnight at 4° C. After removal of the lysates, the plate was washed three times with wash buffer, and 25 μL of #5656S (Cell signaling; rabbit monoclonal) secondary antibody (diluted to 0.25 μg/mL in 0.05% Tween-20 in blocking buffer) was added to each well and incubated with shaking for 1 Hour at room temperature. Following incubation with the secondary antibody, the wells were rinsed with wash buffer after which 25 μL of goat anti-rabbit SULFO TAG secondary detection antibody (required aspect of the MSD system) (diluted to 0.25 μg/mL in 0.05% Tween-20 in blocking buffer) was added to each well and incubated with shaking for 1 hour at room temperature. After rinsing three times with wash buffer, 150 μL of read buffer T with surfactant (MSD) were added to each empty well, and the plate was imaged on a SI 6000 imager (MSD) according to manufacturers' instructions provided for 96- or 384-well plates.

One may read the IC50 as the midpoint of a concentration-inhibition curve. Higher therefore signals a need for much substance. `Cc1cnc(Nc2cnc(-c3cnc(N4CCN[C@@H](C5CC5)C4)nn3)c(O)c2)cn1` [Compound 160, 2-{3-[(3S)-3-cyclopropylpiperazin-1-yl]-1,2,4-triazin-6-yl}-5-[(5-methylpyrazin-2-yl)amino]pyridin-3-ol] showed an IC50 of at most 0.1 µM.

Regarding `Cn1ccc(-c2cnc(-c3ccc(O[C@H]4CC(C)(C)NC(C)(C)[C@H]4F)nn3)c(O)c2)cc1=O` (single isomer, unassigned) [Compound 37, 6-(6-{[(3R,4S)-3-fluoro-2,2,6,6-tetramethylpiperidin-4-yl]oxy}pyridazin-3-yl)-5-hydroxy-1′-methyl[3,4′-bipyridin]-2′(1′H)-one or 6-(6-{[(3S,4R)-3-fluoro-2,2,6,6-tetramethylpiperidin-4-yl]oxy}pyridazin-3-yl)-5-hydroxy-1′-methyl[3,4′-bipyridin]-2′(1′H)-one], the IC50 was 0.1 to 0.5 µM.

In the case of `CN(c1ncc(-c2ncc(-c3cn[nH]c3F)cc2O)nn1)C1CC(C)(C)NC(C)(C)C1` [Compound 143, 5-(5-fluoro-1H-pyrazol-4-yl)-2-{3-[methyl(2,2,6,6-tetramethylpiperidin-4-yl)amino]-1,2,4-triazin-6-yl}pyridin-3-ol], the IC50 lay within 0.1 to 0.5 µM.

`CC1CN(c2ccc(-c3ncc(Nc4cccnc4)cc3O)nn2)CCN1` (stereo not shown) [Compound 117, 2-[6-(3-methylpiperazin-1-yl)pyridazin-3-yl]-5-[(pyridin-3-yl)amino]pyridin-3-ol] gave an IC50 of 0.5 to 1 µM.

As for `CC(C)C1CN(c2ccc(-c3ncc(/C=C/c4cn[nH]c4)cc3O)nn2)CCN1` (stereo not shown) [Compound 130, 2-{6-[3-(propan-2-yl)piperazin-1-yl]pyridazin-3-yl}-5-[(E)-2-(1H-pyrazol-4-yl)ethenyl]pyridin-3-ol], the IC50 was 0.5 to 1 µM.

On to `COc1cc(-c2cnc(-c3cnc(N4CC[C@@H](NC(C)(C)C)C4)nn3)c(O)c2)cc2cn(C)nc12` [Compound 146, 2-{3-[(3R)-3-(tert-butylamino)pyrrolidin-1-yl]-1,2,4-triazin-6-yl}-5-(7-methoxy-2-methyl-2H-indazol-5-yl)pyridin-3-ol], for which the IC50 is at most 0.1 µM.

`Cn1cnc(-c2cnc(-c3ccc(O[C@@H]4CC(C)(C)NC(C)(C)[C@@H]4F)nn3)c(O)c2)cc1=O.Cn1cnc(-c2cnc(-c3ccc(O[C@H]4CC(C)(C)NC(C)(C)[C@H]4F)nn3)c(O)c2)cc1=O` (mixture of isomers) [Compound 42, 6-[6-(6-{[(3R,4S)-3-fluoro-2,2,6,6-tetramethylpiperidin-4-yl]oxy}pyridazin-3-yl)-5-hydroxypyridin-3-yl]-3-methylpyrimidin-4(3H)-one and 6-[6-(6-{[(3S,4R)-3-fluoro-2,2,6,6-tetramethylpiperidin-4-yl]oxy}pyridazin-3-yl)-5-hydroxypyridin-3-yl]-3-methylpyrimidin-4(3H)-one] yielded an IC50 of 0.5 to 1 µM.

`COc1cc(-c2cnc(-c3ccc(OC4CC(C)(C)NC(C)(C)C4F)nn3)c(O)c2)nn2cc(C)nc12` (mixture of isomers) [Compound 57, 2-(6-{[(3R,4S)-3-fluoro-2,2,6,6-tetramethylpiperidin-4-yl]oxy}pyridazin-3-yl)-5-(8-methoxy-2-methylimidazo[1,2-b]pyridazin-6-yl)pyridin-3-ol and 2-(6-{[(3S,4R)-3-fluoro-2,2,6,6-tetramethylpiperidin-4-yl]oxy}pyridazin-3-yl)-5-(8-methoxy-2-methylimidazo[1,2-b]pyridazin-6-yl)pyridin-3-ol]: the IC50 was at most 0.1 µM.

Take `COc1cc(-c2cnc(-c3ccc(N4C[C@@H](C)N[C@@H](C)C4)nn3)c(O)c2)ccn1` [Compound 96, 6-{6-[(3R,5S)-3,5-dimethylpiperazin-1-yl]pyridazin-3-yl}-2′-methoxy[3,4′-bipyridin]-5-ol and 6-{6-[(3S,5R)-3,5-dimethylpiperazin-1-yl]pyridazin-3-yl}-2′-methoxy[3,4′-bipyridin]-5-ol]: the IC50 was 0.1 to 0.5 µM.

As for `CC1(C)CC(Oc2ccc(-c3ncc(-c4ncco4)cc3O)nn2)CC2(CC2)N1` (stereo not shown) [Compound 28, 2-{6-[(5,5-dimethyl-4-azaspiro[2.5]octan-7-yl)oxy]pyridazin-3-yl}-5-(1,3-oxazol-2-yl)pyridin-3-ol], the IC50 is at most 0.1 µM.

The compound `CC(C)(C)N[C@@H]1CCN(c2ccc(-c3ncc(-n4nccn4)cc3O)nn2)C1` [Compound 24, 2-{6-[(3R)-3-(tert-butylamino)pyrrolidin-1-yl]pyridazin-3-yl}-5-(2H-1,2,3-triazol-2-yl)pyridin-3-ol] gave an IC50 of at most 0.1 µM.

`[2H]C([2H])([2H])n1cc(-c2cnc(-c3ccc(O[C@@H]4C[C@H](C)NC5(CC5)C4)nn3)c(O)c2)cn1` [Compound 83, 2-(6-{[(5S,7R)-5-methyl-4-azaspiro[2.5]octan-7-yl]oxy}pyridazin-3-yl)-5-[1-(^2H3)methyl-1H-pyrazol-4-yl]pyridin-3-ol] returned an IC50 of 0.1 to 0.5 µM.

Compound `Cn1cc2cc(-c3cnc(-c4ccc(N5CC6CC5CN6)nn4)c(O)c3)cc(F)c2n1` (stereo not shown) [Compound 105, 2-[6-(2,5-diazabicyclo[2.2.1]heptan-2-yl)pyridazin-3-yl]-5-(7-fluoro-2-methyl-2H-indazol-5-yl)pyridin-3-ol] registered an IC50 of at most 0.1 µM.

`Cc1n[nH]cc1CNc1cnc(-c2ccc(N3CCNC(C)C3)nn2)c(O)c1` (stereo not shown) [Compound 108, 2-[6-(3-methylpiperazin-1-yl)pyridazin-3-yl]-5-{[(3-methyl-1H-pyrazol-4-yl)methyl]amino}pyridin-3-ol] yielded an IC50 of 0.5 to 1 µM.

On to `[2H]C([2H])([2H])n1cc(-c2cnc(-c3ccc(N4CCN[C@@H](C5CC5)C4)nn3)c(O)c2)cn1` [Compound 129, 2-{6-[(3S)-3-cyclopropylpiperazin-1-yl]pyridazin-3-yl}-5-[1-(^2H3)methyl-1H-pyrazol-4-yl]pyridin-3-ol], for which the IC50 is at most 0.1 µM.

For the compound “2-(6-{[(3R,4S)-3-fluoro-2,2,6,6-tetramethylpiperidin-4-yl]oxy}pyridazin-3-yl)-5-(2-methylimidazo[1,2-a]pyridin-6-yl)pyridin-3-ol and 2-(6-{[(3S,4R)-3-fluoro-2,2,6,6-tetramethylpiperidin-4-yl]oxy}pyridazin-3-yl)-5-(2-methylimidazo[1,2-a]pyridin-6-yl)pyridin-3-ol [Compound 43]”, the IC50 was at most 0.1 µM.

In the case of `CC1(C)C[C@@H](Oc2ccc(-c3ncc(-c4nc5cnccn5n4)cc3O)nn2)[C@@H](F)C(C)(C)N1.CC1(C)C[C@H](Oc2ccc(-c3ncc(-c4nc5cnccn5n4)cc3O)nn2)[C@H](F)C(C)(C)N1` (mixture of isomers) [Compound 72, 2-(6-{[(3R,4S)-3-fluoro-2,2,6,6-tetramethylpiperidin-4-yl]oxy}pyridazin-3-yl)-5-([1,2,4]triazolo[1,5-a]pyrazin-2-yl)pyridin-3-ol and 2-(6-{[(3S,4R)-3-fluoro-2,2,6,6-tetramethylpiperidin-4-yl]oxy}pyridazin-3-yl)-5-([1,2,4]triazolo[1,5-a]pyrazin-2-yl)pyridin-3-ol], the IC50 lay in the range of 0.1 to 0.5 µM.

With “2-{3-[(3R)-3-(tert-butylamino)pyrrolidin-1-yl]-1,2,4-triazin-6-yl}-5-(2,8-dimethylimidazo[1,2-b]pyridazin-6-yl)pyridin-3-ol [Compound 149]”, the IC50 was at most 0.1 µM.

`CC1(C)CC(Oc2ccc(-c3ncc(-c4cn[nH]c4)cc3O)nn2)CC(C)(C)N1` [Compound 1, 5-(1H-pyrazol-4-yl)-2-{6-[(2,2,6,6-tetramethylpiperidin-4-yl)oxy]pyridazin-3-yl}pyridin-3-ol] came in with an IC50 of at most 0.1 µM.
